Test results as given in patent US9416154B2, “5′-substituted nucleoside derivatives and methods of use thereof for the treatment of viral diseases” (priority 2011, dated 2016).
Where two headings read alike, the source gives them in different places.

Tests used:
[1] = Cytotoxicity (MTS assay or GAPDH RNA readout); format: cell-based; details: human, replicon-containing Huh 7 cells, 3-day incubation, MTS or GAPDH RNA readout; read-out: 1b CC50
Description: (§1) The effect of the nucleoside derivatives on the proliferation and metabolism of Huh 7 hepatoma cells containing the subgenomic HCV replicon was measured using the MTS assay. Briefly, cells were seeded and dosed with compounds exactly as described in Example 13 above, for replicon EC50 determination. After a 3-day compound incubation period, the MTS assay was performed in accordance with the manufacturer's protocol for the CellTiter 96 Aqueous One Solution Cell Proliferation Assay (Promega, Catalog #G358). Alternatively, after a 3-day compound incubation, the amount of glyceraldehyde-3-phosphate dehydrogenase (GAPDH) RNA in replicon-containing Huh 7 cells was determined using qRT-PCR. CC50 values were derived from 10 serial 2-fold dilutions of the inhibitor in duplicate that yielded 50% inhibition of the MTS or GAPDH RNA readout by comparison with cells treated with vehicle control.

HCV replicon (1b) = experiment: Cell-based HCV replicon assay
Description: To measure cell-based anti-HCV activity of selected compounds of the present invention, replicon cells were seeded at 5000 cells/well in 96-well collagen I-coated Nunc plates in the presence of the test compound. Various concentrations of test compound, typically in 10 serial 2-fold dilutions, were added to the assay mixture, with the starting concentration ranging from 250 μM to 1 μM. The final concentration of dimethylsulfoxide was 0.5%, fetal bovine serum was 5%, in the assay media. Cells were harvested on day 3 by the addition of 1× cell lysis buffer (Ambion cat #8721). The replicon RNA level was measured using real time PCR (Taqman assay). The amplicon was located in 5B. The PCR primers were: 5B.2F, ATGGACAGGCGCCCTGA (SEQ ID. NO. 1); 5B.2R, […] (SEQ ID. NO. 2); the probe sequence was FAM-labeled CACGCCATGCGCTGCGG (SEQ ID. NO. 3). GAPDH RNA was used as endogenous control and was amplified in the same reaction as NS5B (multiplex PCR) using primers and VIC-labeled probe recommended by the manufacturer (PE Applied Biosystem). The real-time RT-PCR reactions were run on ABI PRISM 7900HT Sequence Detection System using the following program: 48° C. for 30 minutes, 95° C. for 10 minutes, 40 cycles of 95° C. for 15 sec, 60° C. for 1 minute. The ΔCT values (CT5B-CTGAPDH) were plotted against the concentration of test compound and fitted to the sigmoid dose-response model using XLfit4 (MDL). EC50 was defined as the concentration of inhibitor necessary to achieve ΔCT=1 over the projected baseline; EC90 the concentration necessary to achieve ΔCT=3.2 over the baseline. Alternatively, to quantitate the absolute amount of replicon RNA, a standard curve was established by including serially diluted T7 transcripts of replicon RNA in the Taqman assay. All Taqman reagents were from PE Applied Biosystems. Such an assay procedure was described in detail in e.g. Malcolm et al., Antimicrobial Agents and Chemotherapy 50: 1013-1020 (2006).

[2] = test system: Huh 7 hepatoma cells containing the subgenomic HCV replicon; experiment: Cytotoxicity (MTS assay or GAPDH RNA readout); format: cell-based
Description: as §1

[3] = Hepatitis C virus, 72 h, read-out: 1b EC50, replicon cells, 3-day incubation, replicon RNA by real time PCR (Taqman)
[4] = replicon cells, 3-day incubation, replicon RNA by real time PCR (Taqman), read-out: 1b EC50
[5] = replicon-containing Huh 7 cells, 3-day incubation, MTS or GAPDH RNA readout, read-out: 1b CC50
[6] = Hepatitis C virus, 72 h, replicon cells, 3-day incubation, replicon RNA by real time PCR (Taqman), read-out: 1b EC50
[7] = read-out: 1b EC50, replicon cells, 3-day incubation, replicon RNA by real time PCR (Taqman)

Row | SMILES | CC50 at 3 day [1] [µM] | EC50 (HCV replicon (1b); [3]) [µM] | further results
1 | COC(=O)[C@H](C)NP(=O)(Oc1cccc2ccccc12)OC(C)[C@H]1O[C@@H](n2ccc3c(N)ncnc32)[C@](C)(O)[C@@H]1O (some centres unmarked) [Compound 42] | > 100 | 4.8 | 
2 | CCOC(=O)[C@H](C)NP(=O)(Oc1ccccc1)O[C@@H](C)[C@H]1O[C@@H](n2ccc3c(N)ncnc32)[C@](C)(O)[C@@H]1O (some centres unmarked) [Compound 39] | > 100 | > 100 | 
3 | CCOC(=O)[C@H](C)NP(=O)(Oc1ccccc1)O[C@H](C)[C@H]1O[C@@H](n2ccc3c(N)ncnc32)[C@](C)(O)[C@@H]1O (some centres unmarked) [Compound 38] | > 100 | > 100 | 
4 | CC(C)(O)[C@H]1O[C@@H](n2ccc3c(N)ncnc32)[C@](C)(F)[C@@H]1O [Compound 30] |  |  | CC50 [2]: > 100 µM; EC50 (HCV replicon (1b); [4]): > 100 µM
5 | CC(C)OC(=O)[C@H](C)NP(=O)(Oc1cccc2ccccc12)OC(C)(C)[C@H]1O[C@@H](n2ccc3c(N)ncnc32)[C@](C)(F)[C@@H]1O (some centres unmarked) [Compound 32] | > 20 | > 20 | 
6 | CCOC(=O)[C@H](C)NP(=O)(Oc1ccccc1)OC(C)[C@H]1O[C@@H](n2ccc3c(N)ncnc32)[C@](C)(F)[C@@H]1O (some centres unmarked) [Compound 16] |  |  | CC50 [2]: > 100 µM; EC50 (HCV replicon (1b); [4]): > 100 µM
7 | C[C@H](O)C1O[C@@H](n2cc(F)c3c(N)ncnc32)[C@](C)(F)[C@@H]1O (some centres unmarked) [Compound 25] |  |  | CC50 [2, 5]: > 100 µM; EC50 (HCV replicon (1b); [4]): > 100 µM
8 | CCCCOC(=O)[C@H](C)NP(=O)(Oc1cccc2ccccc12)O[C@H](C)[C@H]1O[C@@H](n2ccc3c(N)ncnc32)[C@](C)(O)[C@@H]1O (some centres unmarked) [Compound 2] |  |  | CC50 [2, 5]: 44 µM; EC50 (HCV replicon (1b); [4]): 33 µM
9 | CC(C)OC(=O)[C@H](C)NP(=O)(Oc1ccccc1Cl)OC(C)[C@H]1O[C@@H](n2ccc3c(N)ncnc32)[C@](C)(F)[C@@H]1O (some centres unmarked) [Compound 23] | > 100 | > 100 | 
10 | C[C@@H](O)[C@H]1O[C@@H](n2cc(F)c3c(N)ncnc32)[C@](C)(O)[C@@H]1O [Compound 3] | > 100 |  | EC50 (HCV replicon (1b); [6]): > 100 µM
11 | C[C@@H](O)C1O[C@@H](n2cc(F)c3c(N)ncnc32)[C@](C)(F)[C@@H]1O (some centres unmarked) [Compound 26] |  |  | CC50 [2]: > 100 µM; EC50 (HCV replicon (1b); [4]): > 100 µM
12 | CC(C)OC(=O)[C@H](C)NP(=O)(Oc1ccccc1)OC(C)[C@H]1O[C@@H](n2ccc3c(N)ncnc32)[C@](C)(O)[C@@H]1O (some centres unmarked) [Compound 43] | 98 | 14 | 
13 | CCCCOC(=O)[C@H](C)NP(=O)(Oc1cccc2ccccc12)O[C@H](CC)[C@H]1O[C@@H](n2ccc3c(N)ncnc32)[C@](C)(O)[C@@H]1O (some centres unmarked) [Compound 8] | 30 | 13 | 
14 | CC[C@@H](OP(=O)(N[C@@H](C)C(=O)OC)Oc1ccccc1)[C@H]1O[C@@H](n2cc(F)c3c(N)ncnc32)[C@](C)(O)[C@@H]1O (some centres unmarked) [Compound 10] | 20 | 15 | 
15 | COC(=O)[C@H](C)NP(=O)(Oc1ccccc1)O[C@H](C)[C@H]1O[C@@H](n2cc(F)c3c(N)ncnc32)[C@](C)(O)[C@@H]1O (some centres unmarked) [Compound 11] | > 100 | 37 | 
16 | CCCCOC(=O)[C@H](C)NP(=O)(Oc1cccc2ccccc12)O[C@H](CC)[C@H]1O[C@@H](n2cc(F)c3c(N)ncnc32)[C@](C)(O)[C@@H]1O (some centres unmarked) [Compound 6] | 5.7 | 9.3 | 
17 | CC(O)[C@H]1O[C@@H](n2cc(-c3cc[nH]n3)c3c(N)ncnc32)[C@](C)(F)[C@@H]1O (some centres unmarked) [Compound 33] | > 100 |  | EC50 (HCV replicon (1b); [6]): > 100 µM
18 | C[C@@H](O)C1O[C@@H](n2ccc3c(N)ncnc32)[C@](C)(O)[C@@H]1O (some centres unmarked) [Compound 27] |  |  | CC50 [2, 5]: > 100 µM; EC50 (HCV replicon (1b); [4]): > 100 µM
19 | COC(=O)[C@H](C)NP(=O)(Oc1ccccc1)O[C@@H](C)[C@H]1O[C@@H](n2ccc3c(N)ncnc32)[C@](C)(O)[C@@H]1O (some centres unmarked) [Compound 35] | > 100 | > 100 | 
20 | CC(C)OC(=O)[C@H](C)NP(=O)(Oc1ccc(Cl)cc1)OC(C)[C@H]1O[C@@H](n2ccc3c(N)ncnc32)[C@](C)(F)[C@@H]1O (some centres unmarked) [Compound 21] | > 100 | > 100 | 

Row | SMILES | CC50 at 3 day [1] [µM] | EC50 (HCV replicon (1b); [3]) [µM] | further results
21 | CCCCOC(=O)[C@H](C)NP(=O)(Oc1cccc2ccccc12)OC(C)[C@H]1O[C@@H](n2ccc3c(N)ncnc32)[C@](C)(O)[C@@H]1O (some centres unmarked) [Compound 45] |  |  | CC50 [2, 5]: > 100 µM; EC50 (HCV replicon (1b); [7]): 22 µM
22 | C[C@H](O)[C@H]1O[C@@H](n2cc(F)c3c(N)ncnc32)[C@](C)(O)[C@@H]1O [Compound 9] |  |  | CC50 [2]: > 100 µM; EC50 (HCV replicon (1b); [4]): > 100 µM
23 | C[C@@H](O)[C@H]1O[C@@H](n2ccc3c(N)ncnc32)[C@](C)(O)[C@@H]1O [Compound 1] |  |  | CC50 [2]: 78 µM; EC50 (HCV replicon (1b); [4]): 61 µM
24 | CC(O)[C@H]1O[C@@H](n2cc(I)c3c(N)ncnc32)[C@](C)(F)[C@@H]1O (some centres unmarked) [Compound 13] |  |  | CC50 [2]: 30 µM; EC50 (HCV replicon (1b); [4]): 58 µM
25 | CCOC(=O)[C@H](C)NP(=O)(Oc1ccccc1Cl)OC(C)[C@H]1O[C@@H](n2ccc3c(N)ncnc32)[C@](C)(F)[C@@H]1O (some centres unmarked) [Compound 22] | > 100 | > 100 | 
26 | CCOC(=O)[C@H](C)NP(=O)(Oc1cccc2ccccc12)OC(C)[C@H]1O[C@@H](n2ccc3c(N)ncnc32)[C@](C)(F)[C@@H]1O (some centres unmarked) [Compound 18] | > 100 | > 100 | 
27 | COC(=O)[C@H](C)NP(=O)(Oc1ccccc1)O[C@@H](C)[C@H]1O[C@@H](n2cc(F)c3c(N)ncnc32)[C@](C)(O)[C@@H]1O (some centres unmarked) [Compound 12] | > 100 | 39 | 
28 | CCCCOC(=O)[C@H](C)NP(=O)(Oc1cccc2ccccc12)OC(C)[C@H]1O[C@@H](n2ccc3c(N)ncnc32)[C@](C)(O)[C@@H]1O (some centres unmarked) [Compound 44] | 51 |  | EC50 (HCV replicon (1b); [7]): 2 µM
29 | COC(=O)[C@H](C)NP(=O)(Oc1ccccc1)O[C@H](C)[C@H]1O[C@@H](n2ccc3c(N)ncnc32)[C@](C)(O)[C@@H]1O (some centres unmarked) [Compound 34] | > 100 | > 100 | 
30 | CC(O)C1O[C@@H](n2cc(F)c3c(N)ncnc32)[C@](C)(F)[C@@H]1O (some centres unmarked) [Compound 24] |  |  | CC50 [2, 5]: > 100 µM; EC50 (HCV replicon (1b); [4]): > 100 µM
31 | CC(C)(O)[C@H]1O[C@@H](n2ccc3c(N)ncnc32)[C@](C)(O)[C@@H]1O [Compound 31] |  |  | CC50 [2]: > 100 µM; EC50 (HCV replicon (1b); [4]): > 100 µM
32 | CC(O)[C@H]1O[C@@H](n2ccc3c(N)ncnc32)[C@](C)(F)[C@@H]1O (some centres unmarked) [Compound 14] | > 100 |  | EC50 (HCV replicon (1b); [6]): > 100 µM
33 | CC[C@@H](O)[C@H]1O[C@@H](n2cc(F)c3c(N)ncnc32)[C@](C)(O)[C@@H]1O [Compound 5] | 24 |  | EC50 (HCV replicon (1b); [6]): 23 µM
34 | CC(C)OC(=O)[C@H](C)NP(=O)(Oc1ccccc1)OC(C)[C@H]1O[C@@H](n2ccc3c(N)ncnc32)[C@](C)(F)[C@@H]1O (some centres unmarked) [Compound 17] | > 100 | > 100 | 
35 | CC[C@@H](O)[C@H]1O[C@@H](n2ccc3c(N)ncnc32)[C@](C)(O)[C@@H]1O [Compound 7] | > 100 |  | EC50 (HCV replicon (1b); [6]): > 100 µM
36 | CC(OP(=O)(N[C@@H](C)C(=O)OCC(C)(C)C)Oc1ccccc1)[C@H]1O[C@@H](n2ccc3c(N)ncnc32)[C@](C)(O)[C@@H]1O (some centres unmarked) [Compound 41] | > 100 | 18 | 
37 | CCCCOC(=O)[C@H](C)NP(=O)(Oc1cccc2ccccc12)O[C@H](C)[C@H]1O[C@@H](n2cc(F)c3c(N)ncnc32)[C@](C)(O)[C@@H]1O (some centres unmarked) [Compound 4] | 84 | > 100 | 
38 | COC(=O)[C@H](C)NP(=O)(Oc1ccccc1)OC(C)[C@H]1O[C@@H](n2ccc3c(N)ncnc32)[C@](C)(O)[C@@H]1O (some centres unmarked) [Compound 40] | > 100 | 21 | 
39 | CCOC(=O)[C@H](C)NP(=O)(Oc1ccc(Cl)cc1)OC(C)[C@H]1O[C@@H](n2ccc3c(N)ncnc32)[C@](C)(F)[C@@H]1O (some centres unmarked) [Compound 20] | > 100 | > 100 | 
40 | CC(C)OC(=O)[C@H](C)NP(=O)(Oc1cccc2ccccc12)OC(C)[C@H]1O[C@@H](n2ccc3c(N)ncnc32)[C@](C)(F)[C@@H]1O (some centres unmarked) [Compound 19] | > 20 | > 20 | 
